The values that follow come from ChEMBL document CHEMBL1134788, “Oxindole derivatives as orally active potent growth hormone secretagogues” (J Med Chem, 2001).

The term EC50 denotes the concentration that produces a half-maximal response. Read a high EC50 as weaker potency.

For the experiment, the species on record is Rattus norvegicus. Put plainly: In vitro growth hormone releasing activity was measured in rat pituitary cells. The class given is functional, cell-based. The following applies: Pituitary gland cell.
The molecule `CCN(CC)CCN1C(=O)[C@@](O)(c2cc3ccccc3cc2Cl)c2c1cc(C(N)=O)cc2C(F)(F)F` displayed a concentration giving a half-maximal response (EC50) of 3 nM.
The value for `CCN(CC)CCN1C(=O)C(O)(c2ccc3ccccc3c2)c2cccc(Br)c21` (centres undefined) was more than 1000 nM; that for `CCN(CC)CCN1C(=O)C(O)(c2ccc3ccccc3c2)c2c1cc(C#CCO)cc2C(F)(F)F` (centres undefined) was 310 nM.
In the case of `CCN(CC)CCN1C(=O)C(O)(c2ccc3ccccc3c2)c2c1cc(C#CCCC(N)=O)cc2C(F)(F)F` (centres undefined), the EC50 is 30 nM.
`CCN(CC)CCN1C(=O)C(O)(c2cc3ccccc3cc2Cl)c2c1cc(C(N)=O)cc2C(F)(F)F` (centres undefined) registered an EC50 of 3.5 nM.
The value for `CCN(CC)CCN1C(=O)C(O)(c2ccc3ccccc3c2)c2c(Br)cccc21` (centres undefined) was 77 nM; that for `CCN(CC)CCN1C(=O)C(O)(c2ccc3ccccc3c2)c2c1cc(C(N)=O)cc2C(F)(F)F` (centres undefined) was 18 nM.
The value for `CCN(CC)CCN1C(=O)C(O)(c2ccc3ccccc3c2)c2ccc(Br)cc21` (centres undefined) was 380 nM.
In turn, `CCN(CC)CCN1C(=O)C(O)(c2ccc3ccccc3c2)c2ccccc21` (centres undefined) displayed an EC50 of more than 1000 nM.
The value for `CCN(CC)CCN1C(=O)C(O)(c2ccc3ccccc3c2)c2cc(Br)ccc21` (centres undefined) was more than 1000 nM; that for `CCN(CC)CCN1C(=O)[C@](O)(c2cc3ccccc3cc2Cl)c2c1cc(C(N)=O)cc2C(F)(F)F` was 210 nM; that for `CCN(CC)CCN1C(=O)C(O)(c2ccc3ccccc3c2)c2c1cc(C#CCCC(=O)N1CCOCC1)cc2C(F)(F)F` (centres undefined) was 30 nM.
The value for `CCN(CC)CCN1C(=O)C(O)(c2ccc3ccccc3c2)c2c(Cl)cc(C#CCO)cc21` (centres undefined) was 310 nM; that for `CCN(CC)CCN1C(=O)C(O)(c2ccc3ccccc3c2)c2c(C#CCO)cc(Cl)cc21` (centres undefined) was more than 1000 nM.
